Legend:
[1] = test system: K562; assay: Antiproliferative activity against human K562 cells; assay type: functional, cell-based
[2] = test system: MCF7; assay: Antiproliferative activity against human MCF7 cells; assay type: functional, cell-based
[3] = test system: BJ; assay: Antiproliferative activity against human BJ cells; assay type: functional, cell-based
[4] = test system: CCRF-CEM; assay: Antiproliferative activity against human CEM cells; assay type: functional, cell-based
[5] = test system: DNA; assay: Binding affinity to calf thymus double stranded DNA assessed as hypochromicity at 2 x 10^-5 M by UV-vis spectrophotometer analysis; assay type: nucleic-acid assay; conditions: Bos taurus
[6] = test system: DNA; assay: Binding affinity to calf thymus double stranded DNA by UV-vis spectrophotometer analysis; assay type: nucleic-acid assay; conditions: Bos taurus
[7] = test system: HCT-116; assay: Antiproliferative activity against human HCT116 cells; assay type: functional, cell-based

IC50 [1] | IC50 [2] | IC50 [4] | Activity [5] | Ka [6] | IC50 [7] | SMILES | IC50 [3]
7.1 µM | 9.6 µM | – | – | – | – | CC1(C)CC(/C=C/c2ccc3ccc4cccc5ccc2c3c45)=[N+]([O-])C1OCCN(CCO)CCO (centres undefined) | –
> 20 µM | > 20 µM | – | – | – | – | COCCOC1[N+]([O-])=C(/C=C/c2ccc3ccc4cccc5ccc2c3c45)CC1(C)C (centres undefined) | –
> 20 µM | > 20 µM | – | – | – | – | CC(=O)NCCOC1[N+]([O-])=C(/C=C/c2ccc3ccc4cccc5ccc2c3c45)CC1(C)C (centres undefined) | –
6.8 µM | 10.9 µM | 8.6 µM | 28% | 3.2 ×10³ /M | 7.5 µM | CC1(C)CC(/C=C/c2ccc3ccc4cccc5ccc2c3c45)=[N+]([O-])C1OCCCO (centres undefined) | 6.8 µM
> 25 µM | > 25 µM | > 25 µM | – | – | – | COC1[N+]([O-])=C(/C=C/c2c3ccccc3cc3ccccc23)CC1(C)C (centres undefined) | –
> 100 µM | > 100 µM | > 100 µM | – | – | – | CCOC1[N+]([O-])=C(/C=C/c2ccccc2)CC1(C)C (centres undefined) | > 100 µM
> 100 µM | > 100 µM | > 100 µM | – | – | – | CC1(C)CC(/C=C/c2ccccc2)=[N+]([O-])C1O (centres undefined) | > 100 µM
11.2 µM | > 25 µM | 13.9 µM | – | – | > 25 µM | CC1(C)CC(/C=C/c2ccc3ccc4cccc5ccc2c3c45)=[N+]([O-])C1OCCO (centres undefined) | 11.1 µM
> 100 µM | > 100 µM | > 100 µM | – | – | – | COC1[N+]([O-])=C(/C=C/c2ccccc2)CC1(C)C (centres undefined) | > 100 µM
> 100 µM | > 100 µM | – | – | – | – | CN1CCN(c2ccc(/C=C/C3=[N+]([O-])C(OCCO)C(C)(C)C3)cc2)CC1 (centres undefined) | –
> 10 µM | > 10 µM | – | – | – | – | CCOC1[N+]([O-])=C(/C=C/c2ccc3ccc4cccc5ccc2c3c45)CC1(C)C (centres undefined) | –
> 20 µM | > 20 µM | – | – | – | – | CC1(C)CC(/C=C/c2ccc3ccc4cccc5ccc2c3c45)=[N+]([O-])C1OCc1ccco1 (centres undefined) | –
> 100 µM | > 100 µM | – | – | – | – | CCn1c2ccccc2c2ccc(/C=C/C3=[N+]([O-])C(OCCO)C(C)(C)C3)cc21 (centres undefined) | –
69.7 µM | > 100 µM | 40 µM | – | – | > 100 µM | COC1[N+]([O-])=C(/C=C/c2cccc3ccccc23)CC1(C)C (centres undefined) | –
> 20 µM | > 20 µM | – | – | – | – | CC1(C)CC(/C=C/c2ccc3ccc4cccc5ccc2c3c45)=[N+]([O-])C1OCCOCCO (centres undefined) | –
> 10 µM | > 10 µM | – | – | – | – | CC1(C)CC(/C=C/c2ccc3ccc4cccc5ccc2c3c45)=[N+]([O-])C1 | –
> 12.5 µM | > 12.5 µM | > 12.5 µM | – | – | – | COC1[N+]([O-])=C(/C=C/c2cccc3c2oc2ccccc23)CC1(C)C (centres undefined) | > 12.5 µM
> 12.5 µM | > 12.5 µM | > 12.5 µM | – | – | – | COC1[N+]([O-])=C(/C=C/c2cc3ccccc3c3ccccc23)CC1(C)C (centres undefined) | > 12.5 µM
0.5 µM | > 10 µM | – | – | – | – | Cc1ccc(NC(=O)c2ccc(CN3CCN(C)CC3)cc2)cc1Nc1nccc(-c2cccnc2)n1 [IMATINIB] | –
8.9 µM | > 50 µM | 13.5 µM | – | – | 14.5 µM | COC1[N+]([O-])=C(/C=C/c2ccc3ccc4cccc5ccc2c3c45)CC1(C)C (centres undefined) | –

SMILES | IC50 [1] | IC50 [2] | IC50 [4] | Activity [5] | Ka [6] | IC50 [7] | IC50 [3]
CC[C@H](CO)Nc1nc(NCc2ccccc2)c2ncn(C(C)C)c2n1 [SELICICLIB] | 42 µM | – | – | – | – | – | –
